According to patent US10544090B2, “Anthraquinone analogs and methods of making and using thereof” (Georgia State University Research Foundation, Inc., priority 2012, dated 2020):

Columns and labels:
HeLa [1] = experiment: Cytotoxicity against cancer cell lines (Example 5), Hela; assay type: cell-based; details: Tables 5-12
Protocol: (§1) All of the compounds synthesized were tested against a number of cancer cell lines: Hela KB, Cos7, Molt4, K562, EU1, and T98G. The cancer cell lines vary from leukemia cell lines (Molt4, EU, K562) to solid-state tumor cell lines (Hela, KB, Cos7) and the drug resistant cell lines (T98G).

KB [2] = experiment: Cytotoxicity against cancer cell lines (Example 5), KB; assay type: cell-based; details: Tables 5-12
Protocol: as §1

Cos7 = experiment: Cytotoxicity against cancer cell lines (Example 5), Cos7; assay type: cell-based; details: Tables 5-12
Protocol: as §1

T98G = experiment: Cytotoxicity against cancer cell lines (Example 5), T98G; assay type: cell-based; details: Tables 5-12; drug resistant cell line
Protocol: as §1

MOLT4 [3] = experiment: Cytotoxicity against cancer cell lines (Example 5), Molt4; assay type: cell-based; details: Tables 5-12; read-out: IC50 Molt4
Protocol: as §1

K562 = experiment: Cytotoxicity against cancer cell lines (Example 5), K562; assay type: cell-based; details: Tables 5-12
Protocol: as §1

EU1 = experiment: Cytotoxicity against cancer cell lines (Example 5), EU1; assay type: cell-based; details: Tables 5-12
Protocol: as §1

HeLa [4] = experiment: MTT cytotoxicity evaluation of series 1 and 2 rhein analogues, HeLa (Tables 3, 4); assay type: cell-based; details: for IC50: read-out: IC50 (μM) against HeLa; for potency in HeLa cells compared with rhein: in words
MOLT4 [5] = experiment: MTT cytotoxicity evaluation of series 1 and 2 rhein analogues, MOLT4 (Tables 3, 4); details: for cytotoxicity against MOLT4 compared with rhein: in words
HeLa [6] = experiment: MTT cytotoxicity assay, HeLa (Table 2)
Protocol: (§2) The in vitro cytotoxicity studies of the synthesized compounds were performed in three different cell lines (HeLa, Hek, and KB). The activities of the herein described analogues were compared to that of rhein itself and doxorubicin. Due to the poor solubility of the compounds, all of the solutions used for biological testing were prepared using DMSO as solvent.

Hek = experiment: MTT cytotoxicity assay, Hek (Table 2); assay type: cell-based; details: 48 h incubation
Protocol: as §2

KB [7] = experiment: MTT cytotoxicity assay, KB (Table 2); assay type: cell-based; details: 48 h incubation
Protocol: as §2

[8] = read-out: IC50 (μM) against MOLT4, MTT, Tables 3 and 4
[9] = Homo sapiens, HeLa, MTT, Tables 3 and 4
[10] = Homo sapiens, MOLT-4, read-out: IC50 (μM) against MOLT4

SMILES: Nc1cc(OCc2ccccc2)c2c(c1)C(=O)c1cccc(OCc3ccccc3)c1C2=O [BW-AQ-150]
- IC50 (HeLa [1]): ~50 µM
- IC50 (KB [2]): > 50 µM
- IC50 (Cos7): 17 µM
- IC50 (T98G): > 50 µM
- IC50 (MOLT4 [3]): > 25 µM
- IC50 (K562): > 25 µM
- IC50 (EU1): > 25 µM

SMILES: C=CCOc1cccc2c1C(=O)c1c(OCC=C)cc(C(=O)O)cc1C2=O [BW-AQ-153]
- IC50 (HeLa [1]): > 50 µM
- IC50 (KB [2]): > 50 µM
- IC50 (Cos7): > 50 µM
- IC50 (T98G): > 50 µM
- IC50 (MOLT4 [3]): > 25 µM
- IC50 (K562): > 25 µM
- IC50 (EU1): > 25 µM

SMILES: O=C1c2cccc(O)c2C(=O)c2c(O)cc(-c3cccs3)cc21 [Compound 26b, 1,8-Dihydroxy-3-(thiophen-2′-yl)-anthraquinone]
- IC50 (HeLa [4]; MTT, Tables 3 and 4): > 100 µM
- cytotoxicity against MOLT4 compared with rhein (MOLT4 [5]): decreased cytotoxicity
- IC50 (MOLT4 [5]; [8]): > 100 µM

SMILES: O=C1c2cccc(O)c2C(=O)c2c(O)cc(-c3ccc(Sc4ccccc4)nc3)cc21 [Compound 26d, 1,8-Dihydroxy-3-(6′-phenylthio-pyridin-3′-yl)-anthraquinone]
- IC50 (HeLa [4]; MTT, Tables 3 and 4): > 100 µM
- IC50 (MOLT4 [5]; [8]): 35 µM

SMILES: O=C(CN1CCOCC1)Nc1cc(O)c2c(c1)C(=O)c1cccc(O)c1C2=O [Compound 9c, 1,8-dihydroxy-3-(2′-morpholino-acetamido)-anthraquinone]
- IC50 (HeLa [4]; [9]): 13 µM
- IC50 (MOLT4 [5]; [10]): 25 µM

SMILES: O=C(CBr)NCCCCNC(=O)c1cc(O)c2c(c1)C(=O)c1cccc(O)c1C2=O [Compound 18, 1,8-Dihydroxy-3-(9′-bromo-aceta-2′,7′diamido)-anthraquinone]
- IC50 (μM) against HeLa (HeLa [6]; MTT, 48 h incubation, Table 2): low micro molar
- cytotoxicity against HeLa cells compared to rhein (HeLa [6]; in words): significant improvement
- IC50 (HeLa [6]; read-out: IC50 (μM) against HeLa, MTT, 48 h incubation, Table 2): 3 µM
- IC50 (μM) against Hek (Hek): low micro molar
- IC50 (Hek; read-out: IC50 (μM) against Hek): 1.4 µM
- IC50 (μM) against KB (KB [7]): low micro molar
- IC50 (KB [7]; read-out: IC50 (μM) against KB): 4.8 µM

SMILES: O=C1c2cccc(O)c2C(=O)c2c(O)cc(Sc3ccccc3)cc21 [Compound 24a, 1,8-Dihydroxy-3-(phenylthio)-anthraquinone]
- potency increase compared with rhein, HeLa (HeLa [4]): at least 30 fold
- IC50 (HeLa [4]; [9]): 3.4 µM
- IC50 (μM) against HeLa (HeLa [4]; MTT, Tables 3 and 4): single digit μM level
- potency increase compared with rhein, MOLT4 (MOLT4 [5]): at least 30 fold
- IC50 (MOLT4 [5]; [10]): 1.4 µM
- IC50 (μM) against MOLT4 (MOLT4 [5]; MTT, Tables 3 and 4): single digit μM level

SMILES: O=C1c2cccc(O)c2C(=O)c2c(O)cc(-c3cccs3)cc21 [BW-AQ-140]
- IC50 (HeLa [1]): 3.1 ± 0.68 µM
- IC50 (KB [2]): 3.4 ± 1.02 µM
- IC50 (Cos7): 2.2 ± 0.41 µM
- IC50 (T98G): 13.8 ± 4 µM
- IC50 (MOLT4 [3]): 0.209 ± 0.044 µM
- IC50 (K562): 3.2 ± 1.5 µM
- IC50 (EU1): 0.69 ± 0.152 µM

SMILES: CC(C)(C)OCc1ccc(-c2cc(O)c3c(c2)C(=O)c2cccc(O)c2C3=O)cc1 [Compound 26e, 1,8-Dihydroxy-3-(4′-t-butoxymethyl-phenyl)-anthraquinone]
- IC50 (HeLa [4]; [9]): > 100 µM
- IC50 (MOLT4 [5]; [10]): 22 µM

SMILES: CCN(CC)CC(=O)Nc1cc(O)c2c(c1)C(=O)c1cccc(O)c1C2=O [Compound 9a, 1,8-Dihydroxy-3-(2′-diethylamino-acetamido)-anthraquinone]
- IC50 (HeLa [4]; [9]): 6.1 µM
- IC50 (MOLT4 [5]; [10]): 3 µM

SMILES: C=CCOc1cccc2c1C(=O)c1c(OCC=C)cc(NC(=O)CCl)cc1C2=O [BW-AQ-161]
- IC50 (HeLa [1]): > 20 µM
- IC50 (KB [2]): > 20 µM
- IC50 (Cos7): > 20 µM
- IC50 (T98G): > 50 µM
- IC50 (MOLT4 [3]): > 10 µM
- IC50 (K562): > 10 µM
- IC50 (EU1): > 10 µM

SMILES: C=CC(=O)Nc1cc(OCC)c2c(c1)C(=O)c1cccc(OCC)c1C2=O [BW-AQ-158]
- IC50 (HeLa [1]): 19.7 µM
- IC50 (KB [2]): 20.3 µM
- IC50 (Cos7): 8.42 µM
- IC50 (T98G): 21 µM
- IC50 (MOLT4 [3]): < 3.2 µM
- IC50 (K562): 10.7 µM
- IC50 (EU1): 6 µM

SMILES: Cc1noc(C)c1-c1cc(O)c2c(c1)C(=O)c1cccc(O)c1C2=O [Compound 26a, 1,8-Dihydroxy-3-(3′,5′-dimethyl-isoxazol-4′-yl)-anthraquinone]
- IC50 (HeLa [4]; MTT, Tables 3 and 4): 16 µM
- potency in HeLa cells compared with rhein (HeLa [4]): moderate improvement in potency
- IC50 (MOLT4 [5]; [8]): 14 µM

SMILES: Cc1cc(-c2cc(O)c3c(c2)C(=O)c2cccc(O)c2C3=O)ccc1N(C)C [Compound 26c, 1,8-Dihydroxy-3-(4′-dimethylamino-3′-methylphenyl)-anthraquinone]
- IC50 (HeLa [4]; [9]): 68 µM
- potency in HeLa cells compared with rhein (HeLa [4]): moderate improvement in potency
- IC50 (MOLT4 [5]; [10]): > 100 µM
- cytotoxicity against MOLT4 compared with rhein (MOLT4 [5]): decreased cytotoxicity

SMILES: O=C1c2cccc(O)c2C(=O)c2c(O)cc(-c3ccc(O)cc3)cc21 [Compound 26g, 1,8-Dihydroxy-3-(4′-hydroxyphenyl)-anthraquinone]
- IC50 (HeLa [4]; [9]): 9.9 µM
- potency in HeLa cells compared with rhein (HeLa [4]): moderate improvement in potency
- IC50 (MOLT4 [5]; [10]): 21 µM
